Numbers after ± are expanded uncertainties.
Assay: xn = mol fraction of the nth substance listed
Details: 100 kPa, Liquid; for viscosity: Concentric cylinders viscometry; for speed of sound: Frequency=200 MHz, Sing-around technique in a fixed-path interferometer; for mass density: Vibrating tube method

CC(CC(C)(C)C)CC(C)(C)CC(C)(C)C (configuration not stated) [2,2,4,4,6,8,8-heptamethylnonane] + CC(CC(C)(C)C)CC(C)(C)C
Details | mass density [kg/m3] | speed of sound [m/s] | viscosity [mPa·s]
293.15 K, x1 = 0.0772 | 749.05 ± 0.21 | 1211.7 ± 0.9 | 1.43 ± 0.02
293.15 K, x1 = 0.1584 | 752.89 ± 0.21 | 1219.4 ± 0.9 | 1.55 ± 0.02
293.15 K, x1 = 0.2439 | 756.76 ± 0.21 | 1226.7 ± 0.9 | 1.7 ± 0.02
293.15 K, x1 = 0.334 | 760.65 ± 0.21 | 1234.8 ± 0.9 | 1.87 ± 0.02
293.15 K, x1 = 0.4293 | 764.68 ± 0.22 | 1242.9 ± 1 | 2.08 ± 0.02
293.15 K, x1 = 0.5302 | 768.56 ± 0.22 | 1251.1 ± 1 | 2.29 ± 0.02
293.15 K, x1 = 0.6371 | 772.47 ± 0.23 | 1259.6 ± 1 | 2.56 ± 0.03
293.15 K, x1 = 0.7506 | 776.56 ± 0.23 | 1268.2 ± 1 | 2.86 ± 0.03
293.15 K, x1 = 0.8711 | 780.52 ± 0.24 | 1276.9 ± 1 | 3.25 ± 0.03
293.15 K, x1 = 1 | – | – | 3.71 ± 0.03
303.15 K, x1 = 0.0772 | 741.82 ± 0.21 | 1173 ± 0.9 | 1.2 ± 0.02
303.15 K, x1 = 0.1584 | 745.73 ± 0.21 | 1180.9 ± 0.9 | 1.3 ± 0.02
303.15 K, x1 = 0.2439 | 749.65 ± 0.21 | 1188.4 ± 0.9 | 1.42 ± 0.02
303.15 K, x1 = 0.334 | 753.6 ± 0.22 | 1196.6 ± 0.9 | 1.55 ± 0.02
303.15 K, x1 = 0.4293 | 757.69 ± 0.22 | 1205 ± 0.9 | 1.71 ± 0.02
303.15 K, x1 = 0.5302 | 761.62 ± 0.23 | 1213.3 ± 1 | 1.88 ± 0.02
303.15 K, x1 = 0.6371 | 765.59 ± 0.23 | 1221.9 ± 1 | 2.08 ± 0.02
303.15 K, x1 = 0.7506 | 769.74 ± 0.24 | 1230.8 ± 1 | 2.31 ± 0.02
303.15 K, x1 = 0.8711 | 773.76 ± 0.24 | 1239.6 ± 1 | 2.59 ± 0.03
303.15 K, x1 = 1 | – | – | 2.93 ± 0.03
313.15 K, x1 = 0.0772 | 734.56 ± 0.21 | 1135 ± 0.9 | 1.02 ± 0.02
313.15 K, x1 = 0.1584 | 738.53 ± 0.21 | 1143 ± 0.9 | 1.1 ± 0.02
313.15 K, x1 = 0.2439 | 742.51 ± 0.22 | 1150.7 ± 0.9 | 1.2 ± 0.02
313.15 K, x1 = 0.334 | 746.52 ± 0.22 | 1159 ± 0.9 | 1.3 ± 0.02
313.15 K, x1 = 0.4293 | 750.67 ± 0.22 | 1167.6 ± 0.9 | 1.43 ± 0.02
313.15 K, x1 = 0.5302 | 754.66 ± 0.23 | 1176.1 ± 1 | 1.56 ± 0.02
313.15 K, x1 = 0.6371 | 758.69 ± 0.23 | 1184.8 ± 1 | 1.72 ± 0.02
313.15 K, x1 = 0.7506 | 762.9 ± 0.24 | 1193.9 ± 1 | 1.9 ± 0.02
313.15 K, x1 = 0.8711 | 766.98 ± 0.24 | 1202.8 ± 1 | 2.12 ± 0.02
313.15 K, x1 = 1 | – | – | 2.37 ± 0.03
323.15 K, x1 = 0.0772 | 727.27 ± 0.21 | 1097.7 ± 0.9 | 0.882 ± 0.021
323.15 K, x1 = 0.1584 | 731.3 ± 0.22 | 1105.9 ± 0.9 | 0.947 ± 0.021
323.15 K, x1 = 0.2439 | 735.34 ± 0.22 | 1113.7 ± 0.9 | 1.03 ± 0.02
323.15 K, x1 = 0.334 | 739.41 ± 0.22 | 1122.2 ± 0.9 | 1.11 ± 0.02
323.15 K, x1 = 0.4293 | 743.63 ± 0.23 | 1131 ± 0.9 | 1.21 ± 0.02
323.15 K, x1 = 0.5302 | 747.69 ± 0.23 | 1139.7 ± 0.9 | 1.32 ± 0.02
323.15 K, x1 = 0.6371 | 751.78 ± 0.23 | 1148.5 ± 1 | 1.44 ± 0.02
323.15 K, x1 = 0.7506 | 756.05 ± 0.24 | 1157.7 ± 1 | 1.59 ± 0.02
323.15 K, x1 = 0.8711 | 760.19 ± 0.25 | 1166.8 ± 1 | 1.76 ± 0.02
323.15 K, x1 = 1 | – | – | 1.95 ± 0.02

From the NIST ThermoML archive (doi:10.1021/je501141e)
